In paper PMC8921834, “Septins tune lipid kinase activity and PI(4,5)P2 turnover during G-protein–coupled PLC signalling in vivo” (Life Science Alliance, 2022):

Target: T1, dPIP5K^L (Drosophila melanogaster, UniProt A0A6M3Q9L5)
T1 construct: gene PIP5K59B; full-length long isoform, 897 residues, about 100 kD; cDNA from fly retinae in pUAST-attB, transiently expressed in Drosophila S2R+ cells; lysate assayed
Assay: in vitro lipid kinase assay, LC-MS/MS of product:substrate ratio
Assay type: biochemical
Conditions: S2R+ lysate 10 μg; 600 pmol PI4P with phosphatidylserine micelles; ATP (40 μM in 2x buffer), pH 7.4, 30 °C, 30 min

T1 sequence (A0A6M3Q9L5 1-891): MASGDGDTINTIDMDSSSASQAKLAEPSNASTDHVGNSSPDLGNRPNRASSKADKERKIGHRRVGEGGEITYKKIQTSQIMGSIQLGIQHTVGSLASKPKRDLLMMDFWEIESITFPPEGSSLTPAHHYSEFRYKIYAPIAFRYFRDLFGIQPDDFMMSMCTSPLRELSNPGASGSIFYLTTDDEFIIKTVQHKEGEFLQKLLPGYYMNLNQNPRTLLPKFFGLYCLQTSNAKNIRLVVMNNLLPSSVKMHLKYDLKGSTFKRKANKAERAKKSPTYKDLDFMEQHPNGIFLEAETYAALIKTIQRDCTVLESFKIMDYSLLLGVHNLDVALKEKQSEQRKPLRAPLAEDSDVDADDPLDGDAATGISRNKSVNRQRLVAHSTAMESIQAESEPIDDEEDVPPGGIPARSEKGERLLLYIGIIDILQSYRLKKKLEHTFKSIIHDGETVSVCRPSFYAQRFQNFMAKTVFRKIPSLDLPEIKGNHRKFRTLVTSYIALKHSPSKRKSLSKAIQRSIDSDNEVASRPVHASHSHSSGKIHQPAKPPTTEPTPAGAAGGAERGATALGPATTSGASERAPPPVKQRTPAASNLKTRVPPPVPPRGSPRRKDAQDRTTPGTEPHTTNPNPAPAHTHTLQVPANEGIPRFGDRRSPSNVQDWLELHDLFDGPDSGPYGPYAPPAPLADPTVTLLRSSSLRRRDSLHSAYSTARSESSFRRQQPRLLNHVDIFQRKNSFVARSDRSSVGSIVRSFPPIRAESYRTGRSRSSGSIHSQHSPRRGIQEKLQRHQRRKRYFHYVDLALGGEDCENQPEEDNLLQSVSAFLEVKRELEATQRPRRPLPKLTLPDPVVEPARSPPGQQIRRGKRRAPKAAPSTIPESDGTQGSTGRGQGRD

SMILES: CCCCC/C=C\C/C=C\C/C=C\C/C=C\CCCC(=O)O[C@H](COC(=O)CCCCCCCCCCCCCCCC)COP(=O)(O)O[C@H]1[C@H](O)[C@@H](O)[C@H](OP(=O)(O)O)[C@@H](O)[C@H]1O [37:4 PI4P]
- response ratio: response ratio of dPIP5K^L transfected lysates was significantly higher
